Source: US12083202B2, “Lipophilic cosmetic compositions containing pelargonic acid esters” (Novamont S.p.A., priority 2015, dated 2024)

Legend:
[1] = UV filters dispersion: dispersibility of a solid UV filter in ester oils; assay type: physicochemical; parameters: key to Filters dispersion t0 1% / Filters dispersion t0 10% / Filters dispersion t24 1% / Filters dispersion t24 10%: D=homogeneous dispersion; S=sediment deposit; details: for Filters dispersion t0 1%: 1% TiO2, storage 0 hours at 25° C.; for Filters dispersion t24 1%: 1% TiO2, storage 24 hours at 25° C.; for Filters dispersion t0 10%: 10% TiO2, storage 0 hours at 25° C.; for Filters dispersion t24 10%: 10% TiO2, storage 24 hours at 25° C.; for dispersion of Titania: in words, compared with reference solvents
Procedure: The dispersibility of a solid UV filter in different ester oils was tested using Titania (TiO2, commercially available as Titanio Biossido Anatasio from A.C.E.F.). Various ratios of filter/ester (1% and 10% TiO2) were prepared under stirring at 70° C. for 30 minutes. The dispersions were then observed after a storage period of 0 hours (t0) and 24 hours (t24) at ambient temperature (25° C.) to check for the formation of any sediment deposit. Results for each ester are shown in the table below (D=homogeneous dispersion; S=sediment deposit).

[2] = Pigment dispersion: wet point and flow point; assay type: physicochemical; details: for Fp (flow point), amount of ester oil needed / Wp (wet point), amount of ester oil needed: grams per 100 g of pigment, Black Iron Oxide CI77499
Text: Black Iron Oxide particles (CI77499, commercially available as YPC335200 from Yipin) were dispersed in each of the ester oils of the present invention and in ester oil commonly used as cosmetic ingredients. Each sample of powder particles was wetted by the dropwise addition of one ester oil and then vigorously blended using a spatula until the wet point and the flow point were reached.
The wet point is defined as the minimum volume of dispersant solution to produce a soft coherent mass; the further minimum addition of dispersant solution to produce flow or falling off of the homogeneous mass from the vertical blade of a horizontally held spatula determines the flow point.
The amounts of dispersant solution (i.e. ester oil) needed to reach the wet point (Wp) and the flow point (Fp) were recorded and reported in the table below, expressed in grams per 100 g of pigment.

## CCCCCCCCC(=O)OCC(COC(=O)CCCCCCCC)OC(=O)CCCCCCCC [Glycerol tripelargonate]
[1]
  Filters dispersion t0 1%: D
  Filters dispersion t24 1%: D
  Filters dispersion t0 10%: D
  Filters dispersion t24 10%: S/D
  dispersion of Titania: even better
[2]; from the minimum difference between Fp and Wp
  less solvent required in the final composition: about 30%
[2]
  Fp (flow point), amount of ester oil needed: 100.00 g
  Wp (wet point), amount of ester oil needed: 60.00 g
[2]; in words, compared with commonly used cosmetic ingredients
  dispersion properties: even better than those of Caprylic/Capric Triglyceride

## CC(C)CCCCCCOC(=O)CCCCCC(C)C [Isononyl Isononanoate, reference compound]
[1]
  Filters dispersion t0 1%: D
  Filters dispersion t24 1%: S
  Filters dispersion t0 10%: D
  Filters dispersion t24 10%: S
[2]
  Fp (flow point), amount of ester oil needed: 145.00 g
  Wp (wet point), amount of ester oil needed: 50.00 g

## CCCCCCCCC(=O)OCC(C)(C)COC(=O)CCCCCCCC [Neopentyl glycol dipelargonate]
[1]
  Filters dispersion t0 1%: D
  Filters dispersion t24 1%: S/D
  Filters dispersion t0 10%: D
  Filters dispersion t24 10%: S/D
[2]
  Fp (flow point), amount of ester oil needed: 166.00 g
  Wp (wet point), amount of ester oil needed: 61.00 g

## CCCCCCCCC(=O)OCC(COC(=O)CCCCCCCC)(COC(=O)CCCCCCCC)COC(=O)CCCCCCCC [Pentaerythritol tetrapelargonate]
[1]
  Filters dispersion t0 1%: D
  Filters dispersion t24 1%: D
  Filters dispersion t0 10%: D
  Filters dispersion t24 10%: D
  dispersion of Titania: even better
[2]
  Fp (flow point), amount of ester oil needed: 132.00 g
  Wp (wet point), amount of ester oil needed: 62.00 g
